Test results as given in ChEMBL document CHEMBL1125177, “Pseudopeptide analogues of substance P and leucine enkephalinamide containing the psi (CH2O) modification: synthesis and biological activity” (J Med Chem, 1991).
Calls of active or inactive are those of the source. The calls are words filed in the database; no cut-off is given here. Starred links: 1 amine or outer side, 2 acyl side, 3 side chain; linkers in the order of their positions; H or OH if unused. Non-standard residues stand in square brackets, D forms with d. Residues, ends and D or L forms follow the SMILES beside them. X3 = O=C(CCC(=O)[*:2])[C@H](Cc1ccccc1)N[*:1]; X4 = O=C(C/C=C/[C@H](Cc1ccccc1)N[*:1])[*:2]; X1 = O=C(COC[C@H](Cc1ccccc1)N[*:1])[*:2]; NMeF = CN[C@@H](Cc1ccccc1)C(=O)O; pGlu = O=C1CC[C@@H](C(=O)O)N1; AEA = NCCOCC(=O)O; Ava = NCCCCC(=O)O; Sar = CNCC(=O)O

What was measured:
Neuromedin-K receptor [1] = target: T1, Neuromedin-K receptor (Cavia porcellus, UniProt P30098); experiment: Effective dose was measured on NK3 receptors of guinea pig ileum for maximal contraction in the presence of 10e-7 M substance P methyl ester.; type: functional, tissue-based
T1 sequence (P30098 whole entry): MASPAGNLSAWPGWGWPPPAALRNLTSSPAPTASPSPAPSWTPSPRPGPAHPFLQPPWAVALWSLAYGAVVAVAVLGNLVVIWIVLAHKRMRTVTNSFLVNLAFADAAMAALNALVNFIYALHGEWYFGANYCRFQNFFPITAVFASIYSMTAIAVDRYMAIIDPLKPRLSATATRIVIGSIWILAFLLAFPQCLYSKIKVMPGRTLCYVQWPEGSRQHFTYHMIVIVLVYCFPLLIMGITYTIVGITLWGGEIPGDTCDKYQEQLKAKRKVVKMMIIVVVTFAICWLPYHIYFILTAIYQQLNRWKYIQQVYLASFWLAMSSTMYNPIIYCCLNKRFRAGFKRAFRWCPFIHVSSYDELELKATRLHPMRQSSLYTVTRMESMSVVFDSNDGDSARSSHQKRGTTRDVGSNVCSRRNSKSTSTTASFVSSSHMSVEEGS

Cavia porcellus [2] = species on record: Cavia porcellus; experiment: Effective concentration was determined using guinea pig ileum; type: functional
Substance-P receptor = Substance-P receptor (Cavia porcellus, UniProt P30547); experiment: Effective dose was measured on NK1 receptors of guinea pig ileum for maximal contraction in the presence of 3*10e-7 M atropine; type: functional, tissue-based
Rattus norvegicus = species on record: Rattus norvegicus; experiment: Inhibitory effect was measured on electrically stimulated rat vas deferens contraction; type: functional
Cavia porcellus [3] = species on record: Cavia porcellus; experiment: Relative potency to that of [pGlu6]SP6-11 in guinea pig ileum; type: functional
[4] = target: T2, Neuromedin-K receptor (Cavia porcellus) (UniProt P30098); experiment: Relative potency as ratio of the EC50 value of analogue to that of [PGlu6]SP6-11 in tachykinin receptor 3 in guinea pig ileum; type: functional, tissue-based
T2 sequence (whole entry): T1 sequence (P30098 whole entry)

Cavia porcellus [5] = species on record: Cavia porcellus; experiment: Effective dose was measured on guinea pig ileum for maximal contraction; type: functional
[6] = Ratio of NK-1 receptor to that of NK-3 receptor; type: functional
Cavia porcellus [7] = species on record: Cavia porcellus; experiment: Relative potency to that of [D-Ala2,Leu5]enkephalinamide in guinea pig ileum; type: functional
Mus musculus [8] = species on record: Mus musculus; experiment: Inhibitory effect was measured on mouse vas deferens; type: functional
Cavia porcellus [9] = species on record: Cavia porcellus; experiment: Inhibitory effect was measured on guinea pig ileum for maximal contraction; type: functional
[10] = target: Delta-type opioid receptor (Rattus norvegicus, UniProt P33533); experiment: Binding affinity to opioid receptor delta was determined in rat brain using [3H]DSTBULET as radioligand; type: tissue-based
Cavia porcellus [11] = species on record: Cavia porcellus; experiment: Relative potency as ratio of the EC50 value of analogue to that of [PGlu6]SP6-11 in achykinin receptor 3 in guinea pig ileum; type: functional
Mus musculus [12] = species on record: Mus musculus; experiment: Inhibitory effect was measured on mouse vas deferens; c = Did not show agonist activity up to 10E-5 M; type: functional
[13] = target: Delta-type opioid receptor (Rattus norvegicus) (UniProt P33533); experiment: It is the ratio of Ki value for delta receptor to that of opioid receptor mu
Mu-type opioid receptor = Mu-type opioid receptor (Rattus norvegicus, UniProt P33535); experiment: Binding affinity to opioid receptor mu was determined in rat brain using [3H]DAGO as radioligand; type: tissue-based
[14] = Ratio of IC50 measured in MVD to that of GPI; c= Did not show agonist activity up to 10E-5 M.; type: functional
Cavia porcellus [15] = species on record: Cavia porcellus; experiment: Relative potency to that of [DAla2,Leu5]enkaphalinamide.; type: functional
Mus musculus [16] = species on record: Mus musculus; experiment: Relative potency to that of [D-Ala2, Leu5]-enkaphalinamide in mouse vas deferens; c = Did not show agonist activity up to 10E-5 M; type: functional
Mus musculus [17] = species on record: Mus musculus; experiment: Relative potency to that of [D-Ala2, Leu5]-enkaphalinamide in mouse vas deferens; type: functional
[18] = Ratio of IC50 measured in MVD to that of GPI.; type: functional
Neuromedin-K receptor [19] = target: T1, Neuromedin-K receptor; experiment: Effective dose was measured on NK3 receptors of guinea pig ileum for maximal contraction in the presence of 10e-7 M substance P methyl ester; type: functional, tissue-based

Substance-P receptor, sequence (P30547 whole entry): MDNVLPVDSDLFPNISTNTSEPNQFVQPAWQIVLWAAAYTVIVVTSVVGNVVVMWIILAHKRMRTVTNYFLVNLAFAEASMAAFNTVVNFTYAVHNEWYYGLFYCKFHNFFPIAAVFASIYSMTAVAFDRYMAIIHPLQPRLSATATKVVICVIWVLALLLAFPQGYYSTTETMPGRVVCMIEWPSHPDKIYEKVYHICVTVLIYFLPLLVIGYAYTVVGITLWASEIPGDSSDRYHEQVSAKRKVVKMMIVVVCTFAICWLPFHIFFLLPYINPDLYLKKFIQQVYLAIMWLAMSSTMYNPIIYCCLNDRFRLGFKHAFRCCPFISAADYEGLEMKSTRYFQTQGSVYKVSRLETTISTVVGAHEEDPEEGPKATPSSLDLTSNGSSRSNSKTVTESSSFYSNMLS
Delta-type opioid receptor, sequence (P33533 whole entry): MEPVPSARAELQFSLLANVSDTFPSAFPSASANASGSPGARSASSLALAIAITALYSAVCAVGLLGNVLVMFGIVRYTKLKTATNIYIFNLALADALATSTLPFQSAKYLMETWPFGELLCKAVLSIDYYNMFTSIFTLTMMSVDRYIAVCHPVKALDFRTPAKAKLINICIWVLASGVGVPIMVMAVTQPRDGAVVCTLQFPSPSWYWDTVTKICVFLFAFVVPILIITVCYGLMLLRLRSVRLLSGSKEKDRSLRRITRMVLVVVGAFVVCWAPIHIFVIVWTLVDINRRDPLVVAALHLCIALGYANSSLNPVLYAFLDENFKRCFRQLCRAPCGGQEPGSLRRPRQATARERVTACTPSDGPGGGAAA
Mu-type opioid receptor, sequence (P33535 whole entry): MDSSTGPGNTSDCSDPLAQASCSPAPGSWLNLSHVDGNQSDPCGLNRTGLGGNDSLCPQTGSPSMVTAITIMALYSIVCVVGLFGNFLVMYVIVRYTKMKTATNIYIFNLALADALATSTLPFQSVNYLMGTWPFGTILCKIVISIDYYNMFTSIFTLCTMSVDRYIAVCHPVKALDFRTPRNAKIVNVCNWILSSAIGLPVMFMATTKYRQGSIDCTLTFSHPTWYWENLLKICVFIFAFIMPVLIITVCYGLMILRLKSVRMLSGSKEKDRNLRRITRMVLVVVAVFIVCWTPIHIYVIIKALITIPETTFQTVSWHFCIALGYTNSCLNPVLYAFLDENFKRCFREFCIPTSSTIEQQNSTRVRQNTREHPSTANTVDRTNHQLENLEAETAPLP
Delta-type opioid receptor (Rattus norvegicus), sequence (P33533 whole entry): as the sequence (P33533 whole entry) above

With `CSCC[C@H](NC(=O)[C@H](CC(C)C)NC(=O)COC[C@H](Cc1ccccc1)NC(=O)[C@H](Cc1ccccc1)NC(=O)[C@@H]1CCC(=O)N1)C(N)=O` ([pGlu]F[X1]LM-NH2) the EC50 (Neuromedin-K receptor [1]) was 12.5 nM, the EC50 (Cavia porcellus [2]) was 2 nM and the EC50 (Substance-P receptor) was 39.6 nM. It also gave an EC50 (Rattus norvegicus) of 2000 nM, a Relative potency (Cavia porcellus [3]) of 25% and a Relative potency [4] of 40%. It also gave an EC50 (Cavia porcellus [5]) of 4.8 nM and a Ratio [6] of 3.16.

Compound `CC(C)C[C@H](NC(=O)[C@H](Cc1ccccc1)NC(=O)CSCCNC(=O)[C@@H](N)Cc1ccc(O)cc1)C(=O)O` has a Relative potency (Cavia porcellus [7]) of under 1%.

`CSCC[C@H](NC(=O)[C@H](Cc1ccccc1)NC(=O)CN(C)C(=O)CNC(=O)[C@@H](N)Cc1ccc(O)cc1)C(=O)O` showed a Relative potency (Cavia porcellus [7]) of 0.1%.

With `C[C@@H](NC(=O)[C@@H](N)Cc1ccc(O)cc1)C(=O)NCC(=O)N(C)[C@@H](Cc1ccccc1)C(=O)NCCO` [DAMGO] the IC50 (Mus musculus [8]) was 51.5 nM, the IC50 (Cavia porcellus [9]) was 18 nM and the Ki [10] was 629 nM.

In the case of `CSCC[C@H](NC(=O)[C@H](CC(C)C)NC(=O)CNC(=O)[C@H](Cc1ccccc1)N(C)C(=O)[C@H](Cc1ccccc1)NC(=O)[C@@H]1CCC(=O)N1)C(N)=O` ([pGlu]F[NMeF]GLM-NH2), the Relative potency (Cavia porcellus [11]) is reported as 555%, the EC50 (Neuromedin-K receptor [1]) is reported as 0.9 nM and the EC50 (Substance-P receptor) is reported as 600 nM. The EC50 (Rattus norvegicus) was 20000 nM, the EC50 (Cavia porcellus [5]) was 0.4 nM and the Ratio [6] was 670.

For `CSCC[C@H](NC(=O)[C@H](CC(C)C)NC(=O)C/C=C/[C@H](Cc1ccccc1)NC(=O)[C@H](Cc1ccccc1)NC(=O)[C@@H]1CCC(=O)N1)C(N)=O` ([pGlu]F[X4]LM-NH2), the EC50 (Cavia porcellus [2]) was 2 nM and the Relative potency (Cavia porcellus [3]) was 24%.

In the case of `CSCC[C@H](NC(=O)[C@H](Cc1ccccc1)NC(=O)CNCCNC(=O)[C@@H](N)Cc1ccc(O)cc1)C(N)=O`, the Relative potency (Cavia porcellus [7]) is reported as 0.3%.

Work on `CSCC[C@H](NC(=O)[C@H](CC(C)C)NC(=O)CN(C)C(=O)[C@H](Cc1ccccc1)NC(=O)[C@H](Cc1ccccc1)NC(=O)[C@@H]1CCC(=O)N1)C(N)=O` ([pGlu]FF[Sar]LM-NH2) yielded an EC50 (Cavia porcellus [2]) of 2 nM and a Relative potency (Cavia porcellus [3]) of 80%.

Compound `CSCC[C@H](NC(=O)[C@H](CC(C)C)NC(=O)CC(=O)N[C@H](Cc1ccccc1)NC(=O)[C@H](Cc1ccccc1)NC(=O)[C@@H]1CCC(=O)N1)C(N)=O` has an EC50 (Cavia porcellus [2]) of 2 nM and a Relative potency (Cavia porcellus [3]) of 22%.

Work on `COC(=O)[C@H](CC(C)C)NC(=O)[C@H](Cc1ccccc1)NC(=O)CNC(=O)C/C=C/[C@@H](N)Cc1ccc(O)cc1` yielded a Relative potency (Cavia porcellus [7]) of 300%.

In the case of `CSCC[C@H](NC(=O)[C@H](CC(C)C)NC(=O)CCC(=O)[C@H](Cc1ccccc1)NC(=O)[C@H](Cc1ccccc1)NC(=O)[C@@H]1CCC(=O)N1)C(N)=O` ([pGlu]F[X3]LM-NH2), the EC50 (Cavia porcellus [2]) is reported as 2 nM and the Relative potency (Cavia porcellus [3]) is reported as 70%.

In the case of `CC(C)C[C@H](NC(=O)[C@H](Cc1ccccc1)NC(=O)COCCNC(=O)[C@@H](N)Cc1ccc(O)cc1)C(N)=O` (H-Y[AEA]FL-NH2), the Relative potency (Cavia porcellus [7]) is reported as 1.4%, the IC50 (Mus musculus [12]) is reported as “Not Active” and the Ratio [13] is reported as 6.66. The Ki (Mu-type opioid receptor) was 1380 nM, the IC50 (Cavia porcellus [9]) was 2300 nM and the Ratio [14] was “inactive”. For the same compound, the Relative potency (Cavia porcellus [15]) was 0.014%, the Ki [10] was 9200 nM and the Relative potency (Mus musculus [16]) was “inactive”.

In the case of `CSCC[C@H](NC(=O)[C@H](Cc1ccccc1)NC(=O)CNC(=O)[C@@H](C)NC(=O)[C@@H](N)Cc1ccc(O)cc1)C(N)=O`, the Relative potency (Cavia porcellus [7]) is reported as 1.1%, the Relative potency (Mus musculus [17]) is reported as 2.8% and the IC50 (Mus musculus [8]) is reported as 4.2 nM. It also gave an IC50 (Cavia porcellus [9]) of 29 nM and a Ratio [18] of 0.14.

In the case of `CC(C)C[C@H](NC(=O)[C@H](Cc1ccccc1)NC(=O)C/N=C(\S)CNC(=O)[C@@H](N)Cc1ccc(O)cc1)C(=O)O`, the Relative potency (Cavia porcellus [7]) is reported as 400%.

For `N[C@@H](Cc1ccc(O)cc1)C(=O)NC/C=C/CC(=O)N[C@@H](Cc1ccccc1)C(=O)N1CCC[C@H]1C(=O)O`, the Relative potency (Cavia porcellus [7]) was 0.1%.

`CC(C)C[C@H](NC(=O)[C@H](Cc1ccccc1)NC(=O)CNC(=O)CSC[C@@H](N)Cc1ccc(O)cc1)C(=O)O` showed a Relative potency (Cavia porcellus [7]) of 24.1%.

Work on `CSCC[C@H](NC(=O)[C@H](Cc1ccccc1)NC(=O)CNC(=O)CCC[C@H](N)Cc1ccc(O)cc1)C(N)=O` yielded a Relative potency (Cavia porcellus [7]) of 3%.

`CSCC[C@H](NC(=O)[C@H](CC(C)C)NC(=O)CNC(=O)[C@H](Cc1ccccc1)NC(=O)[C@H](Cc1ccccc1)NC(=O)[C@@H]1CCC(=O)N1)C(N)=O` ([pGlu]FFGLM-NH2) gave an EC50 (Neuromedin-K receptor [19]) of 5 nM, an EC50 (Substance-P receptor) of 2.2 nM and an EC50 (Rattus norvegicus) of 20000 nM. It also gave a Relative potency [4] of 100%, an EC50 (Cavia porcellus [5]) of 1.2 nM and a Ratio [6] of 0.44.

With `CSCC[C@H](NC(=O)[C@H](Cc1ccccc1)NC(=O)CCCCNC(=O)[C@@H](N)Cc1ccc(O)cc1)C(N)=O` (H-Y[Ava]FM-NH2) the Relative potency (Cavia porcellus [7]) was under 0.3%.

`CSCC[C@H](NC(=O)[C@H](Cc1ccccc1)NC(=O)CNC(=O)CNC[C@@H](N)Cc1ccc(O)cc1)C(N)=O` gave a Relative potency (Cavia porcellus [7]) of 56%.

For `CSCC[C@H](NC(=O)[C@H](Cc1ccccc1)NC(=O)CNC(=O)CN(C)C(=O)[C@@H](N)Cc1ccc(O)cc1)C(=O)O`, the Relative potency (Cavia porcellus [7]) was under 2.1%.

Work on `CC(C)C[C@H](NC(=O)[C@H](Cc1ccccc1)NC(=O)COC[C@@H](C)NC(=O)[C@@H](N)Cc1ccc(O)cc1)C(N)=O` yielded a Relative potency (Mus musculus [17]) of 1%, an IC50 (Mus musculus [8]) of 11.8 nM and an IC50 (Cavia porcellus [9]) of 32 nM. It also gave a Ratio [18] of 0.37 and a Relative potency (Cavia porcellus [15]) of 1%.

Compound `CC(C)CC(NC(=O)[C@H](Cc1ccccc1)NC(=O)COC[C@@H](CO)NC(=O)C(N)Cc1ccc(O)cc1)C(=O)N[C@H](C(=O)O)[C@@H](C)O` (stereo not given in full) has a Relative potency (Mus musculus [17]) of 21.8%, an IC50 (Mus musculus [8]) of 0.54 nM and an IC50 (Cavia porcellus [9]) of 350 nM. The Ratio [18] was 0.0015 and the Relative potency (Cavia porcellus [15]) was 0.09%.

Compound `CC(C)C[C@H](NC(=O)[C@H](Cc1ccccc1)NC(=O)CNC(=O)COC[C@@H](N)Cc1ccc(O)cc1)C(N)=O` has a Relative potency (Cavia porcellus [7]) of 106%, a Relative potency (Mus musculus [17]) of 0.13% and an IC50 (Mus musculus [8]) of 92 nM. The Ratio [13] was 2.12, the Ki (Mu-type opioid receptor) was 3.69 nM and the IC50 (Cavia porcellus [9]) was 30 nM. The Ratio [18] was 3.12, the Relative potency (Cavia porcellus [15]) was 1.06% and the Ki [10] was 7.78 nM.
